Results as given in publication PMC4593073, “Non-invasive imaging and cellular tracking of pulmonary emboli by near-infrared fluorescence and positron-emission tomography” (Nature Communications, 2015).
Where no end group is shown, it is not given here.

What was measured:
Cells grown on plastic = assay: Uptake of the cell viability dye DRAQ7; type: cell-based; conditions: 50 μM, 2 hrs
Description: Discrimination between on and off states in PAR1–RIP observed in vitro translated in vivo. To gauge the interaction of RIP probes with cells, we measured their toxicity at ∼6- to 600-fold excess of the intended use in vivo. […] Inclusion of the highly specific thrombin inhibitor hirudin blocked these protease-dependent effects and confirmed the key role for thrombin in this process. Cells grown on plastic were incubated with […] pro-peptide to confirm that uptake of the fluorescent dye DRAQ7 only occurred in the protease-treated form (Supplementary Fig. 3a) not the pro-peptide alone (Supplementary Fig. 3b). Concentrations required to mediate toxicity in cell culture exceed those used in animal studies described below by several orders of magnitude, but provide a useful readout nonetheless.
Supplementary Figure 3 – The cellular effects of the active PAR1-RIP peptide. High-doses (50 μM) of the cleaved PAR1-RIP lead to
concentrations for extended periods of time (2 hrs). Scale bars, 20 µm.
(1 picture or pasted object on this page, not shown here)

thrombin (factor IIa) = molecular target: T1, thrombin (factor IIa) (Homo sapiens, UniProt P00734); assay: Peptide kinetics: proteolysis of the probe followed by HPLC/mass spectrometry; type: biochemical; conditions: HPLC, 37 °C, PBS pH 7.4, mean±s.d., n=3
T1 construct: Human clotting factors IIa (thrombin), VIIa, IXa, Xa, XIa, plasmin and aPC; purchased Haematologic Technologies
From the text: Comparison of the rates of protease-mediated hydrolysis of a tripeptide chromogenic substrate (P3–P1), quenched oligopeptide substrate (P4–P4′) and our PAR1–RIP probe (P4–P14′) emphasize the value of a larger surface area of interaction between enzyme and substrate in RIP probes. When substrates have limited potential contacts with the protease, and the majority of them are shared with homologous enzymes, their turnover is non-specific. For example, the chromogenic substrate d–Phe–Pro–Arg–paranitroanilide is not only an excellent substrate for thrombin but also for many other proteases (Fig. 3f). As substrate length increases to include four additional residues on the prime side of the scissile bond, specificity increases 10-fold (Fig. 3g). Inclusion of the 10 amino acids responsible for exosite binding to thrombin further increases the relative specificity eightfold and reduces the KM to a physiologically relevant value of 0.2±0.1 μM (mean±s.d., n=3; Fig. 3h). […]
Human clotting factors IIa (thrombin), VIIa, IXa, Xa, XIa, plasmin and aPC were obtained from Haematologic Technologies (Vermont, USA). Kinetics studies of probe digestion were measured by HPLC over the course of 1 h at 37 °C, using 10 nM of enzyme and 1 μM of PAR1–RIP in PBS (pH 7.4). […]

[1] = Acute toxicology: serum panel of hepatic and renal functions; type: in vivo, C57BL/6J mice; design: Phosphorus / Calcium: unit not given here; conditions: mean±s.e.m., n=3
Description: To address the safety profile of this novel functional imaging platform, PAR1–RIP probe was administered in C57BL/6J mice at a concentration threefold higher than used for the imaging studies (150 picomoles, 100 μl). […] The serum was pipetted into clean tubes and frozen before shipment to IDEXX BioResearch (Sacramento, CA) for a comprehensive panel of hepatic and renal functions. All tests were performed using an Olympus 5400 analyser. Measurements of the following enzymes and electrolytes were provided: alkaline phosphatase, alanine aminotransferase, aspartate aminotransferase, creatine phosphokinase, total protein, direct bilirubin, indirect bilirubin, total bilirubin, globulin, blood urea nitrogen, creatinine, cholesterol, glucose, calcium, phosphorus, bicarbonate, chloride, potassium, sodium and haemolysis index.
Toxicology results are presented as mean±s.e.m. Data were analysed using GraphPad Prism (GraphPad Software Inc., San Diego, CA) and statistical differences among experimental groups of animals were detected using one-way analysis of variance (ANOVA) followed by Dunnett’s post-test; P<0.05 was considered statistically significant.

[2] = mouse serum 6 hs after 150 picomoles
[3] = mouse serum 6 hs after 150 picomoles, marked *
[4] = mouse serum 48 hs after 150 picomoles
[5] = mouse serum 72hs after 150 picomoles
[6] = mouse serum 72hs after 150 picomoles, marked *

FVQWFSKFLGKLLPR [thrombin-treated PAR1–RIP]
uptake of cell viability dye DRAQ7 (Cells grown on plastic): uptake of cell viability dyes including DRAQ7

FVQWFSKFLGKLLPRSFLLQDPNDQYEPF [PAR1–RIP]
Km (thrombin (factor IIa)): 0.2 ± 0.1 µM | Alanine Aminotransferase (ALT) [1, 2]: 29.7±1.4 U/L | Albumin [1, 2]: 2.7 ± 0.1 g/dL | Aspartate Aminotransferase (AST) [1, 2]: 61.7 ± 4.0 U/L | Blood Urea Nitrogen (BUN) [1, 2]: 27.0 ± 2.6 mg/dL | Calcium [1, 2]: 9.1 ± 0.1 | Chloride [1, 2]: 116.0 ± 0.6 mEq/ L | Cholesterol [1, 2]: 79 ± 0.6 mg/dL | Creatinine [1, 2]: 0.2 ± 0.0 mg/dL | Creatinine Phosphokinase (CPK) [1, 2]: 144.7 ± 27.4 U/L | Direct Bilirubin [1, 2]: 0.0 ± 0.0 mg/dL | Globulin [1, 2]: 1.9 ± 0.0 g/dL | Glucose [1, 2]: 238.7 ± 2.9 mg/dL | Indirect Bilirubin [1, 2]: 0.1 ± 0.0 mg/dL | Phosphorus [1, 2]: 6.9 ± 0.2 | Potassium [1, 2]: 4.7 ± 0.1 mEq/ L | Sodium [1, 2]: 152.3 ± 0.3 mEq/ L | Total Bilirubin [1, 2]: 0.1 ± 0.0 mg/dL | Total Protein [1, 2]: 4.6 ± 0.1 g/dL | Alkaline phosphatase [1, 3]: 149.7 ± 12.8 U/L | Bicarbonate [1, 3]: 13.3 ± 0.3 mEq/ L | Alanine Aminotransferase (ALT) [1, 4]: 26.3 ± 0.3 U/L | Albumin [1, 4]: 2.6 ± 0.1 g/dL | Alkaline phosphatase [1, 4]: 120.7 ± 6.4 U/L | Aspartate Aminotransferase (AST) [1, 4]: 57.6 ± 6.3 U/L | Bicarbonate [1, 4]: 15.0 ± 0.0 mEq/ L | Blood Urea Nitrogen (BUN) [1, 4]: 23.7 ± 1.4 mg/dL | Calcium [1, 4]: 9.0 ± 0.1 | Chloride [1, 4]: 110.3 ± 0.8 mEq/ L | Creatinine [1, 4]: 0.2 ± 0.0 mg/dL | Creatinine Phosphokinase (CPK) [1, 4]: 150.3 ± 38.0 U/L | Direct Bilirubin [1, 4]: 0.1 ± 0.0 mg/dL | Globulin [1, 4]: 2.0 ± 0.1 g/dL | Glucose [1, 4]: 203.0 ± 3.5 mg/dL | Indirect Bilirubin [1, 4]: 0.1 ± 0.0 mg/dL | Phosphorus [1, 4]: 6.8 ± 0.2 | Potassium [1, 4]: 4.6 ± 0.1 mEq/ L | Sodium [1, 4]: 153.3 ± 0.9 mEq/ L | Total Bilirubin [1, 4]: 0.12 ± 0.0 mg/dL | Total Protein [1, 4]: 4.6 ± 0.1 g/dL | Cholesterol ([1]; mouse serum 48 hs after 150 picomoles, marked *): 84.3 ± 3.5 mg/dL | Alanine Aminotransferase (ALT) [1, 5]: 20.0±1.0 U/L | Albumin [1, 5]: 2.6 ± 0.0 g/dL | Alkaline phosphatase [1, 5]: 107.0 ± 7.8 U/L | Aspartate Aminotransferase (AST) [1, 5]: 53.7 ± 12.2 U/L | Blood Urea Nitrogen (BUN) [1, 5]: 26.7 ± 1.8 mg/dL | Calcium [1, 5]: 9.1 ± 0.2 | Chloride [1, 5]: 110.3 ± 0.3 mEq/ L | Cholesterol [1, 5]: 82.7 ± 1.7 mg/dL | Creatinine [1, 5]: 0.2 ± 0.0 mg/dL | Creatinine Phosphokinase (CPK) [1, 5]: 156.3 ± 67.7 U/L | Direct Bilirubin [1, 5]: 0.0 ± 0.0 mg/dL | Globulin [1, 5]: 1.9 ± 0.1 g/dL | Glucose [1, 5]: 268.0 ± 20.1 mg/dL | Indirect Bilirubin [1, 5]: 0.1 ± 0.0 mg/dL | Phosphorus [1, 5]: 7.4 ± 0.2 | Potassium [1, 5]: 4.9 ± 0.2 mEq/ L | Total Bilirubin [1, 5]: 0.1 ± 0.0 mg/dL | Total Protein [1, 5]: 4.6 ± 0.1 g/dL | Bicarbonate [1, 6]: 18.3 ± 0.3 mEq/ L | Sodium [1, 6]: 150 ± 0.0 mEq/ L
